This is an account of results in ChEMBL document CHEMBL5257144, “Novel Serine-Arginine Protein Kinase Inhibitors for Treating Cancer” (ACS Med Chem Lett, 2023).

The target in this assay is SRSF protein kinase 1 (Homo sapiens, UniProt Q96SB4). In words: Inhibition of SRPK1 (unknown origin) using RS peptide as substrate incubated for 120 mins in the presence 33P-ATP.

Some results are limits rather than exact numbers.

Chain of SRSF protein kinase 1 (Q96SB4 whole entry): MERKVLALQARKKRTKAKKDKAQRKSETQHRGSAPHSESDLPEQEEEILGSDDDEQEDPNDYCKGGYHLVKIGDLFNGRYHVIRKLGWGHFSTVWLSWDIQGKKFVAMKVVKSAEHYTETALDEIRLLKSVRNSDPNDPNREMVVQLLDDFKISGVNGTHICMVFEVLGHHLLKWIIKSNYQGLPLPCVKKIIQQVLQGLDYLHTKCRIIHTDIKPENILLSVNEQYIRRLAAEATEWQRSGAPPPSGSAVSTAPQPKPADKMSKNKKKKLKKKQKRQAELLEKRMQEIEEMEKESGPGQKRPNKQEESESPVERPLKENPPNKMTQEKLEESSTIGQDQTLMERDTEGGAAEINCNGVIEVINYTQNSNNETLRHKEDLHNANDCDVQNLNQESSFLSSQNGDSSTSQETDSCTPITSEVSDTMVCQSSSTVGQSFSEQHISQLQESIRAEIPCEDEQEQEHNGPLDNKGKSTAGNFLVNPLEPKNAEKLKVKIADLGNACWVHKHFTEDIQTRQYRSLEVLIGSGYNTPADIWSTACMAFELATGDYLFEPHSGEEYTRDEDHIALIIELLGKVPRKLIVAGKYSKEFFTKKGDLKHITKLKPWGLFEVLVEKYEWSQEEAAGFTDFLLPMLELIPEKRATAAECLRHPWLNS

The IC50 is the midpoint of a concentration-inhibition curve. Lower therefore signals greater potency. In turn, `CN(c1ncccc1CNc1cnc(-c2nc3cc(Cl)cc(F)c3[nH]2)nc1)S(C)(=O)=O` showed an IC50 of less than 50 nM.

Take `CC(C)c1ccc2[nH]c(-c3ncc(NCc4cccnc4N(C)S(C)(=O)=O)cn3)nc2c1`: the IC50 was less than 50 nM.

On to `CN(c1ncccc1CNc1ccc(-c2nc3cc(Cl)ccc3[nH]2)nc1)S(C)(=O)=O`, for which the IC50 was less than 50 nM.

`CN(c1ncccc1CNc1cnc(-c2nc3cc(F)cc(F)c3[nH]2)nc1)S(C)(=O)=O` came in with an IC50 of less than 50 nM.

Consider `Cc1ccc2nc(-c3ncc(NCc4cccnc4N(C)S(C)(=O)=O)cn3)[nH]c2c1`, for which the IC50 was less than 50 nM.

Turning to `CN(c1ncccc1CNc1cnc(-c2nc3cc(-c4cnn(C)c4)ccc3[nH]2)nc1)S(C)(=O)=O`, the IC50 was less than 50 nM.
